According to US8178119B2, “Method for the acaricidal finishing of textile materials” (Sanitized AG, priority 2004, dated 2012):

Key:
Type in all cases: in vivo
house dust mites [1] = experiment: Effect against house dust mites, method not stated (one of the two methods); conditions: for cuts in the number of mites: without zinc pyrithione, at concentrations normally used for antimicrobial finishing, reduction to zero mites not quite achieved; for growth in the population of mites by a factor: control factor 2.6
Text: On polyurethane foams based on polyester polyol, 2000 ppm of zinc pyrithione allowed a growth in the population of mites by a factor of 1.6, which is only insignificantly less than the corresponding control sample at a factor of 2.6. In the case of plasticized PVC, even 3000 ppm of zinc pyrithione allowed a growth in the population of mites by a factor of 1.4, while the PVC control sample returned a growth of again by a factor of 2.6. Both values are insufficient for the protection of the finished articles against colonization by mites, but they do form the basis for enhancement of the protection without the complete effect having to be supplied by the other active, permethrin for example.
(§1) Testing of the effect against house dust mites was carried out in the experiments according to one of the two methods described hereinbelow: • 1. The textile sample is cut to a size of 8×8 cm and placed on a glass plate of the same size. About 50 house dust mites in the adult stage, which were counted under the microscope, were placed in the center of the sample. Other stages were likewise present of course but are not counted. Some food (see method 2) is added. A 5 mm thick rubber plate with a 30 mm diameter hole in the middle is placed on the sample. The hole is covered from the top with a filter paper, and a metal plate with a hole in the middle is placed on the filter paper such that the hole is congruently positioned above the hole in the rubber plate. The sample plates thus prepared are fixed with clips and are then incubated for 6 or 8 weeks in an incubator at saturated humidity at 25° C. After the period of 6 or 8 weeks, the living adult mites were again counted under the microscope. In this method, the change in the number of mites compared with the initial value is calculated. The test is carried out in duplicate. • 2. The AFNOR NF G 39-011 test method, as carried out for example by TEC Laboratory, F-64600 Anglet, again utilizes 50 adult house dust mites, Dermatophagoides pteronyssinus, per test sample, which come from a stock culture from INRA Bordeaux and were bred for several years at 76% humidity at 25° C. in the complete absence of insecticides. The mites were fed on a mixture of wheat germ and brown brewer's yeast. The test is carried out at 17 to 23° C. The test duration is six weeks, and the mites are counted after they were driven out by application of heat. The test is carried out in quadruplicate. The reduction in the number of mites after six weeks compared with a non-finished control sample is determined.

house dust mites [2] = experiment: Method 1: live adult house dust mites counted on the textile sample after 6 or 8 weeks, change versus initial value
Experimental: as §1, with “The” for “Testing of the effect against house dust mites was carried out in the experiments according to one of the two methods described hereinbelow: • 1. The”, “After the period of 6 or 8 weeks, the living adult mites were again counted under the microscope.” left out, “[…],” for “F-64600 Anglet,”

[3] = system: Dermatophagoides pteronyssinus; experiment: Method 2: AFNOR NF G 39-011 test, reduction in number of mites after six weeks versus non-finished control; conditions: cotton/polyester mattress ticking
Experimental: as §1, with “The” for “Testing of the effect against house dust mites was carried out in the experiments according to one of the two methods described hereinbelow: • 1. The”, “After the period of 6 or 8 weeks, the living adult mites were again counted under the microscope.” left out, “[…],” for “F-64600 Anglet,”

Compound | cuts in the number of mites (house dust mites [1]) | reduction in the number of live mites, average (house dust mites [2]; Example 11: 1000 ppm on cotton, 6 weeks, control growth rate 273%) | reduction in the number of live mites (house dust mites [2]; Example 11: 1400 ppm on polyester furniture covering fabric, 6 weeks, control growth rate 273%) | live mites on samples after the test (house dust mites [2]; Example 3: 1.0% of aqueous dispersion comprising 15% zinc pyrithione padded with 3% NUVA TTC or 4% NUVA HPU or 4% NUVA HPC onto cotton, polyester or polyamide, cured 150° C. 90 seconds) | live mites on samples after the test (house dust mites [2]; Example 6: 0.4% of aqueous formulation comprising 48% zinc pyrithione padded with wetting agent and nonionized surfactant onto woven cotton, dried 180° C. 1 minute) | mite inhibition rate (MIR) compared with the non-finished control fabric, average ([3]; Example 5: 1.0% of formulation comprising 15% zinc pyrithione with 3% to 5% acrylate copolymers) | mites on samples after the test ([3]; Example 5: 1.2% of formulation comprising 15% zinc pyrithione with 3% to 5% acrylate copolymers) | mites on samples after the test ([3]; Example 5: 1.5% of formulation comprising 15% zinc pyrithione with 3% to 5% acrylate copolymers) | growth in the population of mites by a factor (house dust mites [1]; plasticized PVC, 3000 ppm of zinc pyrithione) | growth in the population of mites by a factor (house dust mites [1]; polyurethane foams based on polyester polyol, 2000 ppm of zinc pyrithione)
CCCCCCCCn1sccc1=O [2-n-octylisothiazolin-3-one] | fairly good cuts in the number of mites | – | – | – | – | – | – | – | – | –
Oc1cc(Cl)ccc1Oc1ccc(Cl)cc1Cl [triclosan] | fairly good cuts in the number of mites | 57% | 38% | – | – | – | – | – | – | –
zinc pyrithione | – | – | – | no longer any live mites | no longer any live mites | 99.3% | completely free of mites | completely free of mites | 1.4 | 1.6
